# Measurements: US20100331336A1, “PROTECTIVE EFFECT OF HIGH DOSE FOLATE ON MYCARDIAL ISCHEMIA” (Universiteit Antwerpen, priority 2008, published 2010)
# How the values were obtained:
# myocardial superoxide = assay: Myocardial superoxide by lucigenin-enhanced chemiluminescence; assay type: in vivo, rat; conditions: for decline of O2^− generation on pre-incubation of extracts: 100 μM BH4
# Experimental: (§1) Adult Wistar rats received FA (10 mg/day unless otherwise stated) or placebo by oral gavage for 7-days prior to performing the ischemia/reperfusion (IR) experiment. A total of 131 rats were used, the sample size reflecting the requirement for multiple assays that could not be performed in each animal, but were rather obtained in different subsets of the total group. Animals were anesthetized (pentobarbital 60 mg/kg), intubated via tracheotomy, and ventilated (Harvard Apparatus, Mass.). ECG was monitored and temperature maintained at 37.5° C. The left anterior artery was exposed through the 4-5th intercostal space and a suture placed around it, and transient coronary artery ligation performed for 30 min with (n=85) or without (n=46) 90 min reperfusion. In one subgroup of reperfused animals (n=9), FA was provided 10 minutes after the onset of LAD occlusion (i.e. 20 minutes before the onset of reperfusion), delivered as an IV-bolus.
# (§2) Superoxide was assessed by lucigenin (5 μM)-enhanced chemiluminescence (Beckman LS60001C, n=23)^22 and fluorescent microtopography (dichlorodihydro-fluorescein diacetate, DCF, n=16) and dihydroethidium, DHE, n=24) (Gupte et al., 2005). The direct anti-oxidants effects of folic acid were analysed using an in vitro xanthine/xanthine oxidase system (Antoniades et al., 2006) and compared with Tempol.
# serum homocysteine = conditions: achievable with 0.8 mg/d; cited from earlier work
# [1] = tested on: Adult Wistar rats, coronary artery ligation; assay: In vivo ischemia/reperfusion model, pressure-volume loop hemodynamics; design: species or system rat; conditions: FA 10 mg/d oral pre-treatment 7 days; 30 min LAD occlusion
# Experimental: as §1
# (§3) LV function was assessed in vivo by pressure-volume loops (n=14) during both ischemia and following reperfusion. […] Open chest myocardial anterior wall motion was also measured using a Sequoia—Acuson C256 equipped with 15 MHz linear transducer (Sequoia C256 Echocardiography System, Acuson Corporation, Mountain View, Calif.) at the parasternal view of the left ventricle chamber as described.
# [2] = tested on: Adult Wistar rats, coronary artery ligation; assay: Infarct size analysis and histology, in vivo IR; design: species or system rat
# Experimental: as §1
# (§4) Infarct size was assessed in 31 rats, with area at risk (AAR) determined by negative staining with Evans blue injected during coronary occlusion, and subsequent staining with TTC to detect myocardial necrosis. LV (free wall+whole septum), AAR (neg Evan's Blue) and area of necrosis (TTC-white) were measured by planimetry (Soft Imaging system GmbH, Analysis pro version 3.00), and digitized images subjected to equivalent background subtraction, brightness, and contrast enhancement for improved clarity and sharpness. For in vitro studies, TTC staining was not preceded by Evans' blue staining because global ischemia was created. Contraction band necrosis was assessed in vivo rat hearts (n=22) fixed in Carnoy solution and stained with Masson's trichrome. Serial adjacent fields were examined throughout the full LV to calculate the percent myocardium with contraction bands present. Similar analysis was performed for TUNEL-positivity (Chemicon Intern, Temecula, Calif.), also expressed as percent LV area.
# [3] = tested on: Adult Wistar rats, coronary artery ligation; assay: Regional myocardial blood flow by microspheres; assay type: in vivo, rat; conditions: FA pre-treatment
# Experimental: as §1
# Regional myocardial blood flow was assessed (n=12) by nuclear-activated microspheres ([…], BioPal, Worcester, MA) injected in the left atrium (0.3 ml of 2.5*10^6 spheres/ml) at baseline and after 5 and 30 min of ischemia (Reinhardt et al., 2001). Total counts per minute (cpm) were normalized to weight and results from the ischemic zone normalized to the remote region to provide relative blood flow before and during ischemia.
# [4] = tested on: superoxide generated by xanthine/xanthine oxidase; assay: In vitro xanthine/xanthine oxidase O2− generating system; assay type: biochemical; conditions: lucigenin-enhanced chemiluminescence, FIG. 5F
# Experimental: as §2
# [5] = tested on: Adult Wistar rats, coronary artery ligation; assay: Open chest echocardiography during LAD occlusion; assay type: in vivo, rat; conditions: FA pre-treatment; at 30 min ischemia
# Experimental: as §1, §3
# eNOS = eNOS monomer/dimer formation and NOS enzymatic activity in IR tissue; assay type: in vivo, rat
# Experimental: as §1
# SDS-resistant eNOS dimers and monomers were assayed on ischemia/reperfusion-tissue (n=16) using low temperature SDS-PAGE as previously described (Takimoto. et al., 2005) NOS enzymatic activity was assessed by arginine to citrulline conversion assay from extracts obtained from frozen myocardium (n=15) (Takimoto. et al., 2005).
# [6] = tested on: isolated hearts of adult Wistar rats; assay: Coronary flow and vasodilator response in isolated hearts; design: species or system rat
# Experimental: (§5) Adult Wistar rats (n=28) were anesthetized (pentobarbital 60 mg/kg), and hearts rapidly excised and mounted onto a retrograde perfusion system (Emka, Paris, France) using warmed, oxygenated buffered Krebs-Henseleit solution at constant perfusion pressure (75 mmHg). Hearts were paced at 300 bpm, and maintained in an unloaded state. Coronary flow was measured by an in-line ultrasonic flow probe (Transonic Systems, Ithaca, N.Y., USA). After 30 min equilibration, vasodilators drugs (bradykinin and sodium nitroprusside) were infused by bolus injection (50 μl, 10^−8-10^−5.5 M i.c.) and coronary flow reserve assessed at constant perfusion pressure. After re-establishing baseline, hearts received FA (4.5 10^−6M i.c.) or vehicle for 30 min. Afterwards the hearts were subjected to 40-min zero coronary flow followed by 40 min of reperfusion. Coronary effluent was collected, concentrated (Sartorius-Sipan, Lier, Belgium) and analysed for lactate dehydrogenase (Vitros 950AT, O. C. D., Beerse, Belgium). Coronary vasodilator responses to the same two agents were repeated following reperfusion.
# [7] = tested on: Adult Wistar rats, coronary artery ligation; assay: Ischemia and reperfusion arrhythmia, in vivo IR; design: species or system rat
# Experimental: as §1
# [8] = tested on: isolated hearts of adult Wistar rats; assay: In vitro IR model, isolated perfused hearts: infarct size and LDH; design: species or system rat
# Experimental: as §5, §4
# [9] = tested on: Adult Wistar rats, coronary artery ligation; assay: HPLC analysis of high energy phosphate metabolism in anterior wall samples; assay type: in vivo, rat; conditions: FA pre-treatment; 30 min ischemia, versus controls
# Experimental: as §1, with “In one subgroup of reperfused animals (n=9), FA was provided 10 minutes after the onset of LAD occlusion (i.e. 20 minutes before the onset of reperfusion), delivered as an IV-bolus.” left out
# Snap frozen samples (n=24) from the anterior wall (±FA pre-treatment; ±30 min ischemia, no reperfusion) were de-proteinized and subjected to HPLC analysis of water-soluble low-molecular weight compounds reflecting tissue oxid-oreductive and energy status. High-energy phosphates, oxypurines (hypoxanthine, xanthine, and uric acid), nucleosides (inosine and adenosine), malondialdehyde, and reduced and oxidized glutathione were measured by ion-pairing HPLC as described (Takimoto et al., 2005).
# [10] = FA 10 mg i.v. after 10 min of coronary occlusion
smiles,measurement,setting,value
"C[C@H](O)[C@H](O)[C@H]1CNc2nc(N)[nH]c(=O)c2N1 [BH4, tetrahydrobiopterin]",decline of O2^− generation on pre-incubation of extracts,myocardial superoxide; extracts of FA pre-treated hearts,52.1±11.3%
same,decline of O2^− generation on pre-incubation of extracts,myocardial superoxide; extracts of vehicle treated IR hearts,90.9±0.7%
"Nc1nc2ncc(CNc3ccc(C(=O)N[C@@H](CCC(=O)O)C(=O)O)cc3)nc2c(=O)[nH]1 [FA, folic acid]",decrease in serum homocysteine,serum homocysteine,3 µmol/L
same,Peak LV pressure (systolic blood pressure) change with LAD occlusion,[1],changed little
same,"TUNEL staining, % LV",[2]; [10],4.3±1.3 % LV
same,area at risk (AAR),[2]; [10],52.4±5.5%
same,"contraction band necrosis, % LV",[2]; [10],5.1±0.7 % LV
same,infarct size relative to AAR,"[2]; FA 10 mg i.v. after 10 min of coronary occlusion, n=5",3.0±2.2%
same,"infarct size, % area at risk","[2]; oral FA 10 mg/d pre-treatment 7 days, 30 min ischemia, 90 min reperfusion",3.8±1.2%
same,"Reperfusion contraction band necrosis, % of the LV","[2]; oral FA pre-treatment, IR",4.6%±1.2
same,"TUNEL-positive myocytes, % of LV fields","[2]; oral FA pre-treatment, IR",4.3±1.3%
same,infarct size with lower doses,[2]; pre-treatment by 40% and 10% of the principal FA dose (1 and 4 mg/d),decline in infarct size occurred
same,"ratio of ischemic/remote zone myocardial perfusion, decline",[3]; after 5 min of LAD ligation,−77.7±5.1%
same,flow compared to the remote region,[3]; at 30 minutes of ischemia,−78.4±9.3%
same,direct anti-oxidant effect,[4],substantial anti-oxidant effects
same,Ejection fraction,[5],72.8±1.2%
same,anterior-septal thickening,[5],37.±5.3%
same,eNOS ratio of dimer/monomer,eNOS; FA-pre-treated IR hearts,near normal
same,"NOS activity, arginine-citrulline conversion","eNOS; treated vs. non-treated hearts, p=0.08",not significant improved
same,Bradykinin induced maximal rise in coronary flow,"[6]; after IR, hearts pre-treated with FA",122.0±11.3%
same,coronary flow after ischemia,[6]; isolated hearts,8.9 ± 1.4 mL/min
same,coronary flow at baseline,[6]; isolated hearts,11.4 ± 13.8 mL/min
same,reperfusion arrhythmia occurrence,[7]; FA treated,no FA treated animal
same,"lethal ventricular arrhythmia triggered by ischemia, % of rats",[7]; FA-treated,8.3%
same,infarct size in isolated hearts,"[8]; FA 4.5 10^−6M i.c. 30 min, 40 min zero flow, 40 min reperfusion",7.7±2.8%
same,reduction of myocardial necrosis in hearts studied in vitro,"[8]; FA pre-treatment, FIG. 4D",~80%
same,lactate dehydrogenase in the coronary effluent,"[8]; FA pre-treatment, after ischemia-reperfusion",less lactate dehydrogenase
same,myocardial ATP and ADP during ischemia,[9],maintained at higher levels
same,decline of myocardial superoxide (lucigenin chemiluminescence),"myocardial superoxide; FA pre-treated animals, during ischemia and after 90 minutes reperfusion",~50%
